Our source for the Vmax/Km values is US6812377B2, “Genetic engineering of syringyl-enriched lignin in plants” (Board of Control of Michigan Technological University, priority 2000, dated 2004).

SMILES strings stand for the structures.

The experiment addresses recombinant PtSAD protein (Populus tremuloides, UniProt Q94G59). Nature of the experiment: Kinetic properties of the recombinant PtSAD protein (HPLC-UV/MS). Type of experiment: biochemical. The note with it: substrate of PtSAD; relative, sinapaldehyde = 100. Here is the method:
To characterize the enzyme pH optima, the substrate and recombinant PtCAD or PtSAD protein concentrations described above were used in sodium phosphate buffers, pH 5 to 8.5. […] For inhibition kinetics, the PtCAD-mediated reduction of sinapaldehyde (1 to 200 μM) was assayed in the presence of 1 to 5 μM coniferaldehyde, and the PtSAD-catalyzed reduction of coniferaldehyde (1 to 200 μM) was assayed in the presence of 1 to 5 μM sinapaldehyde. All reactions were terminated by the addition of 10 μL of 6 N HCI (to bring the pH to 2) and 500 ng of internal standard o-coumaric acid and analyzed by HPLC-UV/MS. An aliquot of 100 μL of reaction mixture was injected directly onto a Supelcosil LC-ABZ column (15 cm×4.6 mm×5 μm; Supelco, Bellefonte, Pa.) with automatic sample injection and separated isocratically with a Hewlett-Packard (HP) 1100 liquid chromatography system at 40° C. and a flow rate of 0.25 mL/min. […] The reaction products were identified and confirmed by comparing the ion fragmentation patterns of the product and the authentic standard in MS scanning mode at 70 V. The product quantity and Km, Vmax, kcat, and apparent inhibition constant (Ki) values (means±SE) were determined as described (Osakabe et al., 1999; Li et al., 2000). The results of the inhibition kinetics for both the CAD enzyme (i.e. Table 2) and the SAD enzyme (i.e., Table 3) using a variety of substrates are illustrated below.

Chain of recombinant PtSAD protein (Q94G59 entry or part of it): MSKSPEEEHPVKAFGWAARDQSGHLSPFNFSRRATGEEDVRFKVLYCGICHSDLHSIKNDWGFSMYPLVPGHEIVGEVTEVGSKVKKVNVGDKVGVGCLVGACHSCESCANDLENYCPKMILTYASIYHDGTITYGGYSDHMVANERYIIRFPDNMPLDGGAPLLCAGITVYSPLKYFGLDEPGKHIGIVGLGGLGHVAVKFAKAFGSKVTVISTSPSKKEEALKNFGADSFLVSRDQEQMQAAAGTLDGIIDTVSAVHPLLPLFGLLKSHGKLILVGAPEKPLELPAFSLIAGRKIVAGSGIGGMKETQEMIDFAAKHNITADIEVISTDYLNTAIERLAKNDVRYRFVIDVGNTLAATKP

As for `COc1cc(/C=C/C=O)ccc1O` [Coniferaldehyde], the Vmax/Km stood at 26.6%.
